According to patent US20220127335A1, “TETRAMERIC PROTEIN SCAFFOLDS AS NANO-CARRIERS OF THERAPEUTIC PEPTIDES FOR TREATING CANCER AND OTHER DISEASES” (UNIVERSITY OF MARYLAND, BALTIMORE, priority 2019, published 2022):
Where two headings read alike, the source gives them in different places.

B1: ^PMIBcr/Abl-R6 (designed binder)
chain: MVDPTSFAEYWALLSPDSEPPRMELRSVGDIEQELERAKASIRRLEQEVNQERFRMIYLQTLLAKEKKSYDRRRRRRR
notes: Bcr/Abl tetramerization domain with PMI grafted in place of residues 5-16 and a C-terminal Arg hexapeptide (R6); 78 residues, chemically synthesized by native chemical ligation; Exists as a tetramer in aqueous buffer
B2: Bcr/Abl-R6 (other)
chain: MVDPVGFAEAWKAQFPDSEPPRMELRSVGDIEQELERAKASIRRLEQEVNQERFRMIYLQTLLAKEKKSYDRRRRRRR
notes: Negative control scaffold without the PMI graft: Bcr/Abl tetramerization domain with C-terminal R6; Chemically synthesized; tetramer in aqueous buffer
B3: ^PMIBcr/Abl: Bcr/Abl tetramerization domain with PMI grafted in place of residues 5-16, without R6; negative control (protein)
chain: MVDPTSFAEYWALLSPDSEPPRMELRSVGDIEQELERAKASIRRLEQEVNQERFRMIYLQTLLAKEKKSYDR

How the values were obtained:
[1] = Complete blood cell analysis after 21-day treatment; details: end of three-week treatment
Protocol: (§1) Statistical analysis was performed using T-test, NS standing for no significant difference.

[2] = end of three-week treatment
[3] = tested on: p53, p21, PUMA, NOXA in HCT116 p53^+/+ cells; assay: Western blotting of p53, p21, PUMA, NOXA; assay type: cell-based; details: 12.5 μM, 48 h
Protocol: The primary antibodies were from Santa Cruz Biotechnology (p53), Calbiochem (p21, PUMA and NOXA) and Sigma-Aldrich (β-actin), and secondary antibodies conjugated with horseradish peroxidase from Calbiochem.
T-test was performed for statistical analysis, * standing for p<0.05, *** for p<0.001. The data are the means±SD of three independent Western blotting assays.

HCT116 p53^+/+ cells [4] = assay: Cell viability (CCK-8), HCT116 p53^+/+; assay type: cell-based; details: 48 h after treatment, 1.56 μM to 50 μM
Protocol: (§2) Following a 2-h incubation with CCK-8 reagents, absorbance values at 450 nm were measured on a microplate reader, and percent cell viability was calculated as (Atreatment−Ablank)/(Acontrol−Ablank)×100%. The data are the means of three independent assays.
Three independent assays were performed.

HCT 116 p53^+/+ cells = assay: Cellular uptake by flow cytometry and confocal microscopy; assay type: cell-based
Protocol: HCT 116 p53^+/+ cells were seeded in a 12-well plate at a density of 30,000 cells/well, cultured for 24 h, and treated with peptide or protein at 10 μM for 4 h before flow cytometric analysis.
Hoechst 33342 blue dye was used for nuclei staining.
Peptide/protein internalization and cytosolic release were also examined using both confocal microscopy and flow cytometry.
Cationic cell penetrating peptides as a carrier are known to promote cellular uptake of cargos primarily through the […], which is inhibited by heparin but not by amiloride. To better understand the mechanism of cellular uptake of ^PMIBcr/Abl-R6, confocal microscopic analysis was performed on cells treated with heparin or amiloride.

[5] = tested on: HCT116 p53^+/+ xenograft tumors; assay: Tumor growth inhibition in nude mouse xenograft model; assay type: in vivo, BALB/c nude mice; details: 5 mg/Kg subcutaneous every other day, 3 weeks
[6] = tested on: HCT116 p53^+/+ xenograft tumors; assay: Histopathology of xenograft tumors (H&E and TUNEL staining); assay type: in vivo, BALB/c nude mice; details: tumors after three-week treatment, 5 mg/Kg
Excerpt: Representative tumors from each treatment group were fixed with formaldehyde, dehydrated and sliced into 5 μm-thick sections, and subjected to H&E staining according to standard protocols (scale bar: 50 μm).
FIG. 7F is the terminal deoxynucleotidyl transferase dUTP nick end labeling (TUNEL) assay to stain fragmented DNA in apoptotic cells (scale bar: 50 μm).

[7] = target: the molecule itself; assay: self-association into tetramer; SEC, DLS, fluorescence polarization, SAXS
HCT116 p53^−/− cells = assay: Cell viability (CCK-8), HCT116 p53^−/−; details: 48 h after treatment
Protocol: as §2

[8] = mouse, in vivo
Protocol: as §1

HCT116 p53^+/+ cells [9] = assay: Apoptosis by flow cytometry (annexin V / propidium iodide); assay type: cell-based; details: 12.5 μM, 48 h
Protocol: Apoptosis was detected using a standard apoptotic kit from Biolegend, including APC labeled anti-annexin V antibody and a propidium iodide solution.
Three independent FACS assays were performed, and data are shown as the means±SD (n=3). p values were calculated by t-test (***, p<0.001).

[10] = target: T1, MDM2 (p53-binding domain) (UniProt Q00987 25-109, limits assumed); assay: ITC, MicroCal ITC 200, 25° C., 20 mM Tris/HCl pH 7.4
T1 construct: The ITC legends say only 'MDM2'
T1 sequence (Q00987 25-109 limits assumed): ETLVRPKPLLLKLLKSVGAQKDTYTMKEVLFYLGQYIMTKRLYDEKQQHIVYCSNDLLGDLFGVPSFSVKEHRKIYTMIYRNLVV

Molecule | toxicity to liver and kidney tissues (H&E) [2] | expression of p21, PUMA and NOXA (Western blotting) [3] | p53 level (Western blotting) [3] | cell viability / growth inhibition (HCT116 p53^+/+ cells [4]) | effect on tumor growth [5] | necrotic and apoptotic tumor cells (H&E and TUNEL) [6] | blood cell counts (WBC, LYM, MID, GRN, RBC, PLT) versus mock-treated control [8] | further results
COc1ccc(C2=N[C@@H](c3ccc(Cl)cc3)[C@@H](c3ccc(Cl)cc3)N2C(=O)N2CCNC(=O)C2)c(OC(C)C)c1 [Nutlin-3, reference compound] | no overt toxicity | upregulation | significantly stabilized p53 |  |  |  |  | blood cell counts (WBC, LYM, MID, GRN, RBC, PLT) versus mock-treated control [1]: no statistically significant difference
^PMIBcr/Abl-R6: Bcr/Abl tetramerization domain with PMI grafted in place of residues 5-16, C-terminally extended by Arg-repeating hexapeptide (R6); 78 residues, tetramer |  | upregulation | significantly stabilized p53 | dose-dependent growth inhibition | significantly inhibited it | massive necrotic and apoptotic tumor cells |  | cellular uptake (flow cytometry) (HCT 116 p53^+/+ cells; BDP TR-labeled, 10 μM, 4 h): much more efficiently; cytosolic distribution (confocal microscopy) (HCT 116 p53^+/+ cells; BDP TR-labeled, 10 μM, 4 h): cytosolic distribution; effect of amiloride on internalization (HCT 116 p53^+/+ cells; amiloride 3 mM, 12 h before addition): little effect; effect of heparin on internalization (HCT 116 p53^+/+ cells; heparin sodium 5 mM, 12 h before addition): almost completely blocked it
B1 |  |  |  |  |  |  |  | binding result [7]: binds
B2 | no overt toxicity |  |  | neither PMI nor Bcr/Abl-R6 had any effect on the viability | no effect on tumor growth | lack of activity | no statistically significant difference | cell viability (HCT116 p53^−/− cells): neither PMI nor Bcr/Abl-R6 had any effect on the viability; apoptosis (FACS) (HCT116 p53^+/+ cells [9]): largely unaffected; binding result [10]: no binding
B3 | no overt toxicity |  |  |  | marginally active | partial activity | no statistically significant difference | 
